Where a name gives a salt, the structure may show the parent alone. Read-outs that look alike come from different tables or passages of the source.
Tests used:
Human 5-HT2B = target: T1, Human 5-HT2B (Homo sapiens, UniProt P41595); test: [3H]Serotonin radioligand binding, human 5-HT2B;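 also: competition of tritiated serotonin binding to cell membranes, bound radioactivity on filters counted by liquid scintillation, IC50 from logistic fits converted to Ki with the Cheng-Prusoff equation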
T1 construct: expressed in transfected cells

Human 5-HT2A = Human 5-HT2A (Homo sapiens, UniProt P28223); test: [125I]DOI radioligand binding, human 5-HT2A
rat 5-HT2B receptor = rat 5-HT2B receptor (Rattus norvegicus, UniProt P30994); test: biochemical; type: binding;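 also: displacement of [3H]5-HT from membranes of suspension cells carrying cloned rat 5-HT2B receptor, incubated 15 min at 37 °C or 2 h at 0 °C, filter-bound radioactivity counted by scintillation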
[1] = target: 5-HT2B receptor (rat stomach fundus) (Rattus norvegicus, UniProt P30994); conditions: rat stomach fundus; vs serotonin; ± standard error; read-out: 5-HT2B (Fundus) -log KB (converted);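 also: isometric contraction of isolated male Wistar rat stomach fundus strips, serotonin concentration-response curves after antagonist incubation, KB from dose ratio of agonist potency versus control curve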
distal colon = test: Functional in vitro assay: antagonism of serotonin contraction of rat distal colon longitudinal muscle; conditions: vs serotonin
Text: Functional In vitro Assay:
Sprague-Dawley rats (200-250g; Laboratory Supply, Indianapolis, Ind.) were sacrificed by cervical dislocation and 8 cm segment of distal colon was removed and washed in ice cold modified Kreb's solution of the following composition (millimolar): Nacl, 118.2; Kcl, 4.6; Cacl2. H2 O, 1.6; KH2 PO4, 1.2; MgSO4, 1.2; dextrose, 10.0; and NaHCO3, 24.8. The colon was mounted on a glass rod and the longitudinal muscle layer with attached myenteric plexi was removed and mounted in organ baths, containing above described Kreb's solution maintained at 37° C. and equilibrated with 95% O2 and 5% CO2. Tissues were placed under 2 g tension and allowed to stabilize for 1 hour. Isometric contractions were recorded as changes in grams of force using grass FT03 transducers and MI^2 - computerized dynograph system. Cumulative concentration-response curves for serotonin were obtained by a stepwise increase in concentration after washing out the preceding concentration for 10-15 minutes. Each agonist concentration remained in contact with the tissue for 5 minutes. Maximum response to each concentration was determined and digitized. EC50 values were taken as the concentration of agonist that produced half maximal contraction. After control responses were obtained, tissues were incubated with an appropriate concentration of antagonist for 15 minutes. Response to serotonin were then repeated in the presence of an antagonist. Concentration-response utilized only one concentration of antagonist per tissue. Apparent antagonist dissociation constants (KB) were determined for each concentration of antagonist according to the following equation:
KB =[B]/(dose ratio-1), where [B] is the concentration of the antagonist and dose ratio is the ED50 of the agonist in the presence of antagonist divided by the control ED50. The results were expressed as the negative logarithm of the KB (i.e., -log KB) (Br. J. Pharmacol. Methods 4:4165, (1980).
The functional in vitro method described supra. was used to test compounds of this invention. Values are expressed as pKi and pA2 (-log KB). The following table illustrates the results obtained when the compounds were tested using the Radioligand assay supra. (pKi) and the functional in vitro method described supra. (pA2)

Rat 5-HT2A = Rat 5-HT2A (Rattus norvegicus, UniProt P14842); test: [125I]DOI radioligand binding, rat 5-HT2A; conditions: AVG
[2] = [3H]Serotonin, 5-HT2B cells, AVG, read-out: Ki Human 5-HT2B
[3] = [3H]Serotonin, 5-HT2B cells, AVG, read-out: Ki Rat 5-HT2B
[4] = Ki Rat 5-HT2B, [3H]Serotonin, 5-HT2B cells, AVG
[5] = Radioligand assay, Table III, read-out: pKi (converted)
[6] = [125I]DOI, AVG, read-out: Ki Human 5-HT2A

5-HT2B receptor (rat stomach fundus), sequence (P30994 whole entry): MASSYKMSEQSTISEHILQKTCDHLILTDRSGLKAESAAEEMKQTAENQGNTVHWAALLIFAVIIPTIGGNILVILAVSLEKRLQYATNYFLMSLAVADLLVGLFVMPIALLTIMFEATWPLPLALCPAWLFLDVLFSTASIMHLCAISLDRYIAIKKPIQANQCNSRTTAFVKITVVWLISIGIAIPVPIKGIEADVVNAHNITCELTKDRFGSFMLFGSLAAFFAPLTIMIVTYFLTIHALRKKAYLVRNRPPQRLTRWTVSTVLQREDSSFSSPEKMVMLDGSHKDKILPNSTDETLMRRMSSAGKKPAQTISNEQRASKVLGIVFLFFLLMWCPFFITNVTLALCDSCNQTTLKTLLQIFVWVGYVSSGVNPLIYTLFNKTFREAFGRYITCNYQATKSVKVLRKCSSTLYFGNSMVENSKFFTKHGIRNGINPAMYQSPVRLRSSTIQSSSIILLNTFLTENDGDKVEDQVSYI
rat 5-HT2B receptor, sequence (P30994 whole entry): as above
Rat 5-HT2A, sequence (P14842 whole entry): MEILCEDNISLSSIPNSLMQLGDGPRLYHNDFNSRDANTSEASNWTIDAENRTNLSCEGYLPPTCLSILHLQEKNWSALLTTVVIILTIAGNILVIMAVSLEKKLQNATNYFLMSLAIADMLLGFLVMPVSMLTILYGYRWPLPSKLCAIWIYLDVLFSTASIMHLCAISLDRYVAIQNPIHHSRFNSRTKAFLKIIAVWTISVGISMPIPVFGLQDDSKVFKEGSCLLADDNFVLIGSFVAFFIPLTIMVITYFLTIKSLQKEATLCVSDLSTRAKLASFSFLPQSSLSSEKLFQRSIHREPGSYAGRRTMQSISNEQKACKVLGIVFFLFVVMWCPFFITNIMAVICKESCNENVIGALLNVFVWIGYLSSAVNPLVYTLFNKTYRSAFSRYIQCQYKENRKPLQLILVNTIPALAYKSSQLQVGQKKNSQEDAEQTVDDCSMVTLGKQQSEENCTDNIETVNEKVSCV
T1 sequence (P41595 whole entry): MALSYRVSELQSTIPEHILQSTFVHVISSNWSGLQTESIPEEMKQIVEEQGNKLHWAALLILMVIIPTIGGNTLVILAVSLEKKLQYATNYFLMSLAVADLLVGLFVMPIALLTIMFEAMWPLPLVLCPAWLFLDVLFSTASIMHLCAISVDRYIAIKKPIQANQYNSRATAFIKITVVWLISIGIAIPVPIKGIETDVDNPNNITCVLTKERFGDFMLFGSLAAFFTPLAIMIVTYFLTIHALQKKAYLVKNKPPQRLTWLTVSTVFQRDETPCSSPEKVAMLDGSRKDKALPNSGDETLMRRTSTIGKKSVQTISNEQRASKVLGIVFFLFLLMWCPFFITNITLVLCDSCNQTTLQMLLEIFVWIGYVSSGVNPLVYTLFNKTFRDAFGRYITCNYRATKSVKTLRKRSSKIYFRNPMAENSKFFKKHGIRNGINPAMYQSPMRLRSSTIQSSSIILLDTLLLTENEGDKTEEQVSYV
Human 5-HT2A, sequence (P28223 whole entry): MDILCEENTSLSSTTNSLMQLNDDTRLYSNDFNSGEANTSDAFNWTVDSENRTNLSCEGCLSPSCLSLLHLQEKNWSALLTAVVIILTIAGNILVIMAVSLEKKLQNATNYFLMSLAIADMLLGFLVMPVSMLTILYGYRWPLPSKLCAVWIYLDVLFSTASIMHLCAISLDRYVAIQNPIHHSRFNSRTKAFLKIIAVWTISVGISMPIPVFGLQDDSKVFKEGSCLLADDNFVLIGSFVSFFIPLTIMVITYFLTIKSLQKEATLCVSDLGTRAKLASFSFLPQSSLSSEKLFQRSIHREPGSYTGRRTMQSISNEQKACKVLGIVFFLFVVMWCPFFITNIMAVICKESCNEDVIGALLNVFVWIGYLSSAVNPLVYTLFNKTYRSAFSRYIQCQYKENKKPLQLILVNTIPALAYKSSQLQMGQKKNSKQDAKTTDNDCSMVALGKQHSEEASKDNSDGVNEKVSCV

With `CCCNC1CCc2cccc(C(C)=O)c2C1` (stereo not drawn) the Ki (Human 5-HT2B; [2]) was 1790 nM.

`COc1ccc(CC2NCCc3c2[nH]c2ccc(C)cc32)cc1O` (stereo not drawn) was tested, and the Ki (Human 5-HT2A) was 54.9 nM and the Ki (Human 5-HT2B; [2]) was 1.47 nM.

Work on `NCCc1c[nH]c2ccc(C(N)=O)cc12` yielded a Ki (Human 5-HT2A) of 120 nM, a Ki (rat 5-HT2B receptor; [3]) of 147 nM and a Ki (Human 5-HT2B; [2]) of 128 nM.

`CC(C)n1cc2c3c(cccc31)C1CC(C(=O)NCCN3CCN(c4ccccc4)CC3)CN(C)C1C2` (stereo not drawn) gave a Ki (Human 5-HT2A; Ki Human 5-HT2A, [125I]DOI, AVG) of 32.7 nM and a Ki (rat 5-HT2B receptor; [4]) of 11.9 nM.

`Cc1ccc2[nH]c3c(c2c1)CCNC3Cc1cccc2ccccc12` (stereo not drawn) was tested, and the Ki (Human 5-HT2A) was 4.63 nM, the Ki (rat 5-HT2B receptor; [3]) was 3.31 nM and the Ki (Human 5-HT2B; [2]) was 0.74 nM.

For `Cc1ccc2[nH]c3c(c2c1)CCNC3C(C)c1cccc2ccccc12` (racemic) [Example 49, (±) 6-methyl-1-(1-naphthalenyl-1-ethyl)-1,2,3,4-tetrahydro-9H-pyrido [3,4-b]indole (Z) 2-butenedioate], the Kb [1] was about 0.0389 nM and the Ki (rat 5-HT2B receptor; [5]) was 3.98 nM.

For `Clc1ccc2[nH]c3c(c2c1)CCNC3` [6-chloro-1,2,3,4-tetrahydro-9H-pyrido[3,4b]-indole], the “pA2 (-log KB)” value (distal colon) was 7.2.

For `COc1ccc(CC2NCCc3c2[nH]c2ccc(C)cc32)c(OC)c1OC.Cl` (stereo not drawn) [Example 22, 6-methyl-1-[(2,3,4-trimethoxyphenyl)-methyl]-1,2,3,4-tetrahydro-9H-pyrido[3,4-b]indole hydrochloride], the “pA2 (-log KB)” value (distal colon) was 4.8, the Kb [1] was 6.17 nM and the Ki (rat 5-HT2B receptor; [5]) was 5.37 nM.

`COc1ccc(CC2NCCc3c2[nH]c2ccc(C)cc32)c(Br)c1OC` (stereo not drawn) was tested, and the Ki (Human 5-HT2A) was 12.2 nM and the Ki (Human 5-HT2B) was 0.37 nM.

Compound `CC(C)n1cc2c3c(cccc31)C1CC(C(=O)NC3CCCCC3)CN(C)C1C2` (stereo not drawn) has a Ki (Rat 5-HT2A) of 2.05 nM and a Ki (rat 5-HT2B receptor; [4]) of 15.1 nM.

`CC(N)Cc1c[nH]c2ccc(O)cc12` (stereo not drawn) was tested, and the Ki (Human 5-HT2B) was 11.9 nM.

In the case of `Cc1ccc2c3c([nH]c2c1Cl)CNCC3` [Example 76, 7-methyl-8-chloro-1,2,3,4-tetrahydro-9H-pyrido[3,4b]-indole], the “pA2 (-log KB)” value (distal colon) is reported as 8.3.

Work on `COc1ccc(CC2NCCc3c2[nH]c2ccc(C)cc32)cc1OC` (stereo not drawn) [drawing 144] yielded a Ki (Human 5-HT2A) of 28.1 nM.

Work on `CN1CC(C(=O)NC2CCCC2O)CC2c3cccc4[nH]cc(c34)CC21` (stereo not drawn) yielded a Ki (Human 5-HT2B) of 7.87 nM.

In the case of `CCCN(CCC)C1CCc2cccc(C(=O)C(C)(C)C)c2C1` (single isomer, unassigned), the Ki (Human 5-HT2A) is reported as 2230 nM and the Ki (Human 5-HT2B; [2]) is reported as 4750 nM.

`COc1ccc(C(C)C2NCCc3c2[nH]c2ccc(C)cc32)cc1OC` (single isomer, unassigned) was tested, and the Ki (Human 5-HT2A) was 373 nM, the Ki (rat 5-HT2B receptor; [3]) was 30.1 nM and the Ki (Human 5-HT2B; [2]) was 5.55 nM.

With `CC(C)n1cc2c3c(cccc31)C1CC(C(=O)N[C@H]3CC[C@@H](O)CC3)CN(C)C1C2` (stereo partly drawn) the Ki (Rat 5-HT2A) was 1.57 nM, the Ki (Human 5-HT2A; [6]) was 11.3 nM and the Ki (rat 5-HT2B receptor; [4]) was 22.3 nM. The Ki (Human 5-HT2B) was 4.3 nM.

Compound `CC(C)n1cc2c3c(cccc31)C1CC(C(=O)NC3CCCCC3O)CN(C)C1C2` (stereo not drawn) [drawing 85] has a Ki (Rat 5-HT2A) of 12.4 nM, a Ki (Human 5-HT2A; [6]) of 108 nM and a Ki (rat 5-HT2B receptor; [4]) of 11.4 nM.

Compound `Cc1ccc2c3c([nH]c2c1Cl)CNCC3` [drawing 177] has a Ki (Rat 5-HT2A) of 15.5 nM, a Ki (Human 5-HT2A) of 20.6 nM and a Ki (rat 5-HT2B receptor; [3]) of 2.69 nM. For the same compound, the Ki (Human 5-HT2B; [2]) was 2.68 nM.

In the case of `Brc1cccc2c3c([nH]c12)C(Cc1cccc2ccccc12)NCC3` (racemic) [Example 52, (±) 8-bromo-1-(1-naphthalenylmethyl)-1,2,3,4-tetrahydro-9H-pyrido [3,4-b]indole hydrochloride], the Kb [1] is reported as about 0.794 nM.

For `CN1CC(C(=O)NC2CCCCC2)CC2c3cccc4[nH]cc(c34)CC21` (stereo not drawn), the Ki (Rat 5-HT2A) was 5.12 nM and the Ki (rat 5-HT2B receptor; [4]) was 19 nM.

`COc1ccc(CC2NCCc3c2[nH]c2c(C)cccc32)cc1OC` (stereo not drawn) [Example 1, 8-methyl-1-[(3,4-dimethoxyphenyl)methyl]-1,2,3,4-tetrahydro-9H-pyrido[3,4-b]indole] gave a Kb [1] of 1 nM.

With `Cc1ccc2c3c([nH]c2c1Br)CNCC3` the Ki (Rat 5-HT2A) was 15.7 nM and the Ki (Human 5-HT2A) was 21.7 nM.

Compound `CC(C)n1cc2c3c(cccc31)C1CC(C(=O)NC3CCCC3O)CN(C)C1C2` (stereo not drawn) has a Ki (Human 5-HT2A; [6]) of 21.9 nM and a Ki (Human 5-HT2B; read-out: Ki Human 5-HT2B, [3H]Serotonin, 5-HT2B cells, AVG) of 2.24 nM.

For `Cc1ccc2[nH]c3c(c2c1)CCN[C@H]3Cc1cccc2ccccc12` [Example 64, (-)-(S)-6-methyl-1,2,3,4-tetrahydro-1-(1-naphthalenylmethyl)-9H-pyrido [3,4-b] indole hydrochloride], the Kb [1] was 0.186 nM.

In the case of `COc1ccc(C(C)C2NCCc3c2[nH]c2ccc(C)cc32)cc1OC` (racemic) [Example 40], the Kb [1] is reported as 0.178 nM.

Reference: patent US5688807A, “Method for treating 5HT2B receptor related conditions” (Eli Lilly and Company, priority 1995, dated 1997)
